Among the data in patent US8927569 are ring closure, yield of all isomers values, retold here.

The conditions of this series: from C=CCC(C)(C)COC(=O)N[C@H](C(=O)N1C[C@H](Oc2cc(=O)[nH]c3cc(OC)c(C=C)cc23)C[C@H]1C(=O)OC)C1CCCCC1; rcm bond; Zhan 1b catalyst; DCM; 5.0 mM; 40.0 °C; 32.0 h.

`COC(=O)[C@@H]1C[C@@H]2CN1C(=O)[C@H](C1CCCCC1)NC(=O)OCC(C)(C)C/C=C/c1cc3c(cc(=O)[nH]c3cc1OC)O2` displayed a ring closure, yield of all isomers of 99%.
